Drawing on patent US20030050307A1, “Novel indole derivatives” (H. Lundbeck A/S, priority 1999, published 2003), this text covers IC50 and melting point for two compounds.

The target in series [1] is T1, human cloned dopamine D4.2-receptors (Homo sapiens, UniProt P21917, DEL265-296).
T1 construct: expressed in transfected cells; host or cells: CHO cells
T1 sequence (P21917 with tags, fused parts or gaps DEL265-296): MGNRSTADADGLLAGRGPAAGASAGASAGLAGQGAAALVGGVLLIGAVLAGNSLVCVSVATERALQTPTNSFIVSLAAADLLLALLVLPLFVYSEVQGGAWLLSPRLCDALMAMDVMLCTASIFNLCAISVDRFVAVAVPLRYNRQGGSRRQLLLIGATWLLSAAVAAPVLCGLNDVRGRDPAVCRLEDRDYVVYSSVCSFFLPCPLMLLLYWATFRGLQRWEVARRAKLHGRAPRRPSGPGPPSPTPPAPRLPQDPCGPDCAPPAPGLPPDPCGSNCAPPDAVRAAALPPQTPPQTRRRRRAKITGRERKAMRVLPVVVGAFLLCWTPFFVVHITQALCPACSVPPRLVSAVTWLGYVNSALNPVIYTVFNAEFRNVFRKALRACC
The series is described as follows: Inhibition of the binding of 3H-YM-09151-2 to human dopamine D4 receptors. Particulars: [3H]YM-09151-2 0.06 nM; membranes of CHO-cells expressing human D4.2. How it is done: Inhibition of the Binding of ^3H-YM-09151-2 to Human Dopamine D4 Receptors
By this method, the inhibition by drugs of the binding of [^3H]YM-09151-2 (0.06 nM) to membranes of human cloned dopamine D4.2-receptors expressed in CHO-cells is determined in vitro. Method modified from NEN Life Science Products, Inc., technical data certificate PC2533-10/96.

Series [2] has as its target T2, cloned human 5-HT1A-receptors (Homo sapiens, UniProt P08908).
T2 construct: expressed in transfected cells; host or cells: HeLa cells (HA7)
T2 sequence (P08908 1-422): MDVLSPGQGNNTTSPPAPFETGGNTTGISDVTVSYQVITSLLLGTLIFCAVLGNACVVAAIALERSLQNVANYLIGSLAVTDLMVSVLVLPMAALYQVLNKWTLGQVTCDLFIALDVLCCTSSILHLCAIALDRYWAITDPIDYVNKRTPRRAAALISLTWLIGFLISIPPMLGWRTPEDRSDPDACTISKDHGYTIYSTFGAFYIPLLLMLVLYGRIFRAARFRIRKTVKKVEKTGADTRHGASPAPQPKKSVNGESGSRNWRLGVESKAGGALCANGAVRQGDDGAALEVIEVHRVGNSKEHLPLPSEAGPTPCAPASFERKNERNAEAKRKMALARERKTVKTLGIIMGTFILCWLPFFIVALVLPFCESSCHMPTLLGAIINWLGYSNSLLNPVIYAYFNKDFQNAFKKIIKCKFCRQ
The series is described as follows: Inhibition of 3H-5-CT binding to human 5-HT1A receptors. Particulars: transfected HeLa cells (HA7); 15 minutes at 37° C., pH 7.7. How it is done:
The affinity of the compounds of the invention to 5-HT1A receptors was determined by measuring the inhibition of binding of a radioactive ligand at 5-HT1A-receptors as described in the following test:
Inhibition of ^3H-5-CT Binding to Human 5-HT1A Receptors.
By this method, the inhibition by drugs of the binding of the 5-HT1A-agonist ^3H-5-carboxamido tryptamine (^3H-5-CT) to cloned human 5-HT1A-receptors stably expressed in transfected HeLa cells (HA7) (Fargin, A. et al. J. Biol. Chem. 1989, 264, 14848) is determined in vitro. The assay was performed as a modification of the method described by Harrington, M. A. et al. J. Pharmacol. Exp. Ther. 1994, 268, 1098. Human 5-HT1A-receptors (40 μg of cell homogenate) were incubated for 15 minutes at 37° C. in 50 mM Tris buffer at pH 7.7 in the presence of ^3H-5-CT. Non-specific binding was determined by including 10 μM of metergoline. The reaction was terminated by rapid filtration through Unifilter GF/B filters on a Tomtec Cell Harvester. Filters were counted in a Packard Top Counter.

Structures can show the parent of a compound that is named as a salt.

With `Clc1ccccc1OCCCN1CCN(c2cccc3[nH]ccc23)CC1` [Compound 1, 4-{4-[3-(2-Chloro-phenoxy)-propyl]-piperazin-1-yl}-1H-indole], the melting point lay within 189 to 199 °C. The compound further came in with an IC50 in series [1] of 0.092 µM. In series [2], this compound showed an IC50 of 0.012 µM.
`Fc1ccc(OCCCCN2CCN(c3cccc4[nH]ccc34)CC2)c(Br)c1` (as salt: oxalate) [Compound 2d, 4-{4-[4-(2-Bromo-4-fluoro-phenoxy)-butyl]-piperazin-1-yl}-1H-indole] displayed a melting point of 218 to 220 °C.
